Source: patent publication US10597388B2, “Pyridazinone herbicides” (FMC CORPORATION, priority 2014, dated 2020)

What was measured:
Assay type in all cases: in vivo
[1] = test system: wheat (winter wheat, Triticum aestivum); assay: Test C greenhouse herbicide test, pre- and postemergence
Summary of the method: (§1)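 Pre- and postemergence greenhouse screen; values are visual control ratings, 0 meaning no effect and 100 complete kill, assigned relative to untreated plants after 13 to 15 d.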

[2] = test system: lambsquarters (Chenopodium album); assay: as above
Summary of the method: as §1

[3] = test system: morningglory (Ipomoea coccinea); assay: as above
Summary of the method: as §1

[4] = test system: waterhemp (common waterhemp, Amaranthus rudis); assay: as above
Summary of the method: as §1

[5] = test system: foxtail, giant (giant foxtail, Setaria faberii); assay: as above
Summary of the method: as §1

corn (Zea mays) = assay: as above
Summary of the method: as §1

[6] = test system: oilseed rape (Brassica napus); assay: as above
Summary of the method: as §1

[7] = test system: crabgrass, large (large crabgrass, Digitaria sanguinalis); assay: as above
Summary of the method: as §1

[8] = test system: johnsongrass (Sorghum halepense); assay: as above
Summary of the method: as §1

[9] = test system: barnyardgrass (Echinochloa crus-galli); assay: Test A greenhouse herbicide test, pre- and postemergence
Summary of the method: (§2)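 Seeds in loam–sand blend received a preemergence directed soil spray; plants at 2–10 cm, one- to two-leaf stage, received postemergence sprays. Compounds in a non-phytotoxic solvent with surfactant. After about 10 d in a greenhouse, injury rated visually versus untreated controls on a 0–100 scale (100 = complete control).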

kochia (Kochia scoparia) = assay: as above
Summary of the method: as §2

[10] = Postemergence, 31 g ai/ha, 0 to 100 scale (0 no effect, 100 complete control)
[11] = Postemergence, 125 g ai/ha, scale 0 to 100, 0 is no effect, 100 is complete control
[12] = Postemergence, 250 g ai/ha, scale 0 to 100, 0 no effect, 100 complete control, 13 to 15 d
[13] = Preemergence, 62 g ai/ha, scale 0 to 100, 0 is no effect, 100 is complete control
[14] = Preemergence, 125 g ai/ha, scale 0 to 100, 0 is no effect, 100 is complete control
[15] = Preemergence, 250 g ai/ha, scale 0 to 100, 0 no effect, 100 complete control
[16] = postemergence, 62 g ai/ha, scale 0 to 100, 0 no effect, 100 complete control
[17] = Preemergence, 31 g ai/ha, scale 0 to 100, 0 is no effect, 100 is complete control
[18] = Postemergence, 125 g ai/ha, visual rating after approx. 10 d, 0 to 100 scale (0 no effect, 100 complete control)
[19] = Postemergence, 500 g ai/ha, 0 to 100 scale, 0 is no effect, 100 is complete control
[20] = Preemergence, 125 g ai/ha, 0 to 100 scale where 0 is no effect and 100 is complete control
[21] = Preemergence, 500 g ai/ha, 0 to 100 scale, 0 no effect, 100 complete control

Cc1ccc2ccccc2c1-c1c(O)c(I)nn(C)c1=O [Compound 29]
100: Plant response rating, Morningglory [3, 11] | Plant response rating, Morningglory [3, 12] | Morningglory plant response rating [3, 16] | Plant response rating, Waterhemp [4, 13] | Plant response rating, Waterhemp [4, 14] | Waterhemp plant response rating [4, 15] | Plant response rating, Kochia (kochia (Kochia scoparia); [21])
75: Plant response rating, Lambsquarters [2, 17] | Plant response rating, Foxtail, Giant [5, 17] | Plant response rating, Foxtail, Giant [5, 13]
10: Plant response rating, Wheat [1, 12] | Corn plant response rating (corn (Zea mays); [16]) | Crabgrass, Large plant response rating [7, 10] | Plant response rating, Johnsongrass [8, 17]
35: Foxtail, Giant plant response rating [5, 16]
95: Plant response rating, Morningglory [3, 13] | Plant response rating, Morningglory [3, 14] | Foxtail, Giant plant response rating [5, 15]
55: Plant response rating, Crabgrass, Large [7, 14]
90: Plant response rating, Lambsquarters [2, 12] | Lambsquarters plant response rating [2, 15] | Plant response rating, Foxtail, Giant [5, 14] | Crabgrass, Large plant response rating [7, 15] | Plant response rating, Barnyardgrass [9, 21] | Kochia plant response rating (kochia (Kochia scoparia); [19])
0: Corn plant response rating (corn (Zea mays); [10]) | Plant response rating, Corn (corn (Zea mays); [17]) | Plant response rating, Corn (corn (Zea mays); [13]) | Plant response rating, Corn (corn (Zea mays); [14]) | Oilseed Rape plant response rating [6, 10] | Plant response rating, Oilseed Rape [6, 12] | Plant response rating, Oilseed Rape [6, 17] | Plant response rating, Oilseed Rape [6, 13] | Oilseed Rape plant response rating [6, 16] | Johnsongrass plant response rating [8, 10]
80: Lambsquarters plant response rating [2, 10] | Plant response rating, Lambsquarters [2, 13] | Plant response rating, Lambsquarters [2, 14] | Plant response rating, Morningglory [3, 17] | Plant response rating, Waterhemp [4, 11] | Waterhemp plant response rating [4, 16] | Plant response rating, Foxtail, Giant [5, 12] | Barnyardgrass plant response rating [9, 19] | Plant response rating, Kochia (kochia (Kochia scoparia); [18])
20: Plant response rating, Corn (corn (Zea mays); [12]) | Crabgrass, Large plant response rating [7, 16] | Johnsongrass plant response rating [8, 15]
5: Wheat plant response rating [1, 10] | Plant response rating, Wheat [1, 13] | Wheat plant response rating [1, 16] | Plant response rating, Oilseed Rape [6, 11] | Plant response rating, Oilseed Rape [6, 14] | Plant response rating, Crabgrass, Large [7, 17] | Plant response rating, Crabgrass, Large [7, 13] | Plant response rating, Johnsongrass [8, 13] | Johnsongrass plant response rating [8, 16]
45: Plant response rating, Wheat [1, 14] | Corn plant response rating (corn (Zea mays); [15])
30: Plant response rating, Wheat [1, 11] | Foxtail, Giant plant response rating [5, 10] | Plant response rating, Corn (corn (Zea mays); [11])
50: Wheat plant response rating [1, 15] | Plant response rating, Crabgrass, Large [7, 11]
60: Plant response rating, Foxtail, Giant [5, 11] | Kochia plant response rating (kochia (Kochia scoparia); [20])
70: Waterhemp plant response rating [4, 10] | Oilseed Rape plant response rating [6, 15] | Plant response rating, Barnyardgrass [9, 18] | Barnyardgrass plant response rating [9, 20]
40: Plant response rating, Crabgrass, Large [7, 12]
85: Plant response rating, Lambsquarters [2, 11] | Lambsquarters plant response rating [2, 16] | Morningglory plant response rating [3, 10]
25: Plant response rating, Johnsongrass [8, 12] | Plant response rating, Johnsongrass [8, 14]
98: Morningglory plant response rating [3, 15] | Plant response rating, Waterhemp [4, 12]
